# Reference: US20110003867A1, “NOVEL 2-ETHYL-METHYL-AMINO-3-AMIDO-6-AMINO-PYRIDINE DERIVATIVES USEFUL AS POTASSIUM CHANNEL ACTIVATORS” (NeuroSearch A/S, priority 2007, published 2011)
# Target: T1, human Kv72+3 channels (Homo sapiens, UniProt O43525+O43526)
# T1 construct: expressed in transfected cells
# Assay: Patch-clamp on HEK293 cell lines stably expressing human Kv7.2+3 channels
# Format: cell-based
# Conditions: conc. 0.03 μM, −30 mV, 20 ms; baseline current defined as 100%; HEK293 cells
# Source text: The effect obtained by these channel activators is described as a percentage increase in baseline current at a given concentration. The baseline current is defined as 100%, and an increase in current is expressed relative to this, i.e. an increase from 1 nA to 1.2 nA is reported as 120%.
row,Structure (SMILES),I^K(%) increase in baseline current
1,"CCN(C)c1nc(NCc2ccc(F)cc2)ccc1NC(=O)[C@@H]1C[C@H]1c1ccccc1 (relative stereo) [Compound 6, trans-2-Phenyl-cyclopropanecarboxylic acid [2-Ethylmethylamino-6-(4-fluoro-benzylamino)-pyridin-3-yl]-amide]",285%
2,"CCN(C)c1nc(NCc2ccc(F)cc2)ccc1NC(=O)Cc1ccc(C(F)(F)F)c(F)c1 [Compound 3, N-[2-Ethylnnethylamino-6-(4-fluoro-benzylamino)-pyridin-3-yl]-2-(3-fluoro-4-trifluoromethyl-phenyl)-acetamide]",268%

# Second part, the compound after the results:
row,I^K(%) increase in baseline current,Structure (SMILES)
1,685%,"CN(C)c1nc(NCc2ccc(F)cc2)ccc1NC(=O)Cc1cc(F)cc(F)c1 [Compound 1, N-[2-Dimethylamino-6-(4-fluoro-benzylamino)-pyridin-3-yl]-2-(3,5-difluoro-phenyl)-acetamide]"
2,105%,"CCN(C)c1nc(NCc2ccc(F)cc2)ccc1NC(=O)CC(C)(C)C [Compound 8, N-[2-Ethylmethylamino-6-(4-fluoro-benzylamino)-pyridin-3-yl]-3,3-dimethyl-butyramide]"
3,548%,"CCN(C)c1nc(NCC(C)C)ccc1NC(=O)Cc1cc(F)cc(F)c1 [Compound 11, 2-(3,5-Difluoro-phenyl)-N-[2-(ethyl-methyl-amino)-6-isobutylamino-pyridin-3-yl]-acetamide]"
